Data: US11046662B2, “2-aryl-4-hydroxy-1,3-thiazole derivatives useful as TRPM8-inhibitors in treatment of neuralgia, pain, COPD and asthma” (DOMPÉ FARMACEUTICI S.P.A., priority 2014, dated 2021)

How the values were obtained:
mechanical allodynia = experiment: Chronic constriction model of pain, mechanical allodynia (Dynamic Plantar Aesthesiometer); format: in vivo, male Sprague-Dawley rats; settings: oral 10 mg/kg
Experimental: (§1) Neuropathic pain behavior will be induced by ligation of the sciatic nerve according to the method described by Bennett G J et al., Pain. 33: 87-107, 1988. Briefly, male Sprague-Dawley rats will be anaesthetized (100 mg/kg ketamine and 10 mg/kg xylazine i.p.) and the left sciatic nerve will be exposed at the level of the thigh by blunt dissection through the biceps femoris. Proximal to the sciatic's trifurcation, about 12 mm of nerve will be freed of adhering tissue and four ligatures will be loosely tied around it with about 1 mm spacing so that the epineural circulation will be preserved. The length of nerve thus affected was 6-8 mm long. The animals will be allowed to recover and used the day after the surgery. Sham animals represent rats operated but not ligated.
(§2) All data were presented as the mean±SEM. Analysis of data was conducted using GraphPad Prism 4.01. Statistical analysis was performed by two-way ANOVA followed by Dunnett's test for multiple comparisons, as appropriate. Statistical significance was set at p<0.05.

cold allodynia = experiment: Chronic constriction model of pain, cold allodynia (drop of acetone); format: in vivo, male Sprague-Dawley rats; settings: oral 10 mg/kg
Experimental: as §1, §2

human Muscarinic M2 = human Muscarinic M2 (Homo sapiens (Human), UniProt P08172); experiment: GPCR radioligand binding assay; settings: tested at 10 μM in duplicate
human Muscarinic M3 = human Muscarinic M3 (Homo sapiens (Human), UniProt P20309); experiment: GPCR radioligand binding assay; settings: tested at 10 μM in duplicate
human Adrenergic β1 = human Adrenergic β1 (Homo sapiens (Human), UniProt P08588); experiment: GPCR radioligand binding assay; settings: tested at 10 μM in duplicate
human Adrenergic β2 = human Adrenergic β2 (Homo sapiens (Human), UniProt P07550); experiment: GPCR radioligand binding assay; settings: tested at 10 μM in duplicate
human Adrenergic α1A = human Adrenergic α1A (Homo sapiens (Human), UniProt P35348); experiment: GPCR radioligand binding assay; settings: tested at 10 μM in duplicate
human Adrenergic α2A = human Adrenergic α2A (Homo sapiens (Human), UniProt P08913); experiment: GPCR radioligand binding assay; settings: tested at 10 μM in duplicate
[1] = biological target: human Serotoninergic 5-HT1A (Homo sapiens (Human), UniProt P08908); experiment: GPCR radioligand binding assay; settings: tested at 10 μM in duplicate
human Histamine H1 = human Histamine H1 (Homo sapiens (Human), UniProt P35367); experiment: GPCR radioligand binding assay; settings: tested at 10 μM in duplicate
human Histamine H2 = human Histamine H2 (Homo sapiens (Human), UniProt P25021); experiment: GPCR radioligand binding assay; settings: tested at 10 μM in duplicate
human Cannabinoid CB1 = human Cannabinoid CB1 (Homo sapiens (Human), UniProt P21554); experiment: GPCR radioligand binding assay; settings: tested at 10 μM in duplicate
human Cannabinoid CB2 = human Cannabinoid CB2 (Homo sapiens (Human), UniProt P34972); experiment: GPCR radioligand binding assay; settings: tested at 10 μM in duplicate
human Bradykinin B1 = human Bradykinin B1 (Homo sapiens (Human), UniProt P46663); experiment: GPCR radioligand binding assay; settings: tested at 10 μM in duplicate
human Bradykinin B2 = human Bradykinin B2 (Homo sapiens (Human), UniProt P30411); experiment: GPCR radioligand binding assay; settings: tested at 10 μM in duplicate
human Dopamine D2S = human Dopamine D2S (Homo sapiens (Human), UniProt P14416); experiment: GPCR radioligand binding assay; settings: tested at 10 μM in duplicate
human Dopamine D3 = human Dopamine D3 (Homo sapiens (Human), UniProt P35462); experiment: GPCR radioligand binding assay; settings: tested at 10 μM in duplicate
human Opioid δ2 (DOP) = human Opioid δ2 (DOP) (Homo sapiens (Human), UniProt P41143); experiment: GPCR radioligand binding assay; settings: tested at 10 μM in duplicate
human Opioid K (KOP) = human Opioid K (KOP) (Homo sapiens (Human), UniProt P41145); experiment: GPCR radioligand binding assay; settings: tested at 10 μM in duplicate
human Opioid μ (MOP) = human Opioid μ (MOP) (Homo sapiens (Human), UniProt P35372); experiment: GPCR radioligand binding assay; settings: tested at 10 μM in duplicate
human Opioid NOP (ORL1) = human Opioid NOP (ORL1) (Homo sapiens (Human), UniProt P41146); experiment: GPCR radioligand binding assay; settings: tested at 10 μM in duplicate
human NK1 = human NK1 (Homo sapiens (Human), UniProt P25103); experiment: GPCR radioligand binding assay; settings: tested at 10 μM in duplicate
TRPV1 = TRPV1 (Homo sapiens (Human), UniProt Q8NER1); experiment: TRPV1 antagonist calcium influx assay; format: cell-based; settings: agonist capsaicin = 100%, ruthenium red = 0
Source text: The signal elicited in the presence of the positive control agonist (capsaicin) was set to 100% and the signal in the presence of the antagonist (ruthenium red) was set to 0. […] The signal elicited in the presence of the positive control agonist (GSK1016790A) was set to 100% and the signal in the presence of the antagonist (ruthenium red) was set to 0. […] The signal elicited in the presence of the positive control agonist (allyl isothiocyanate, AITC) was set to 100% and the signal in the presence of the antagonist (ruthenium red) was set to 0.

hERG channel = hERG channel (Homo sapiens (Human), UniProt Q12809); experiment: hERG inhibition
CYP3A4 = CYP3A4 (Homo sapiens (Human), UniProt P08684); experiment: CYP450 Inhibition; format: in vitro ADME; settings: at 10 μM
CYP1A2 = CYP1A2 (Homo sapiens (Human), UniProt P05177); experiment: CYP450 Inhibition; format: in vitro ADME; settings: at 10 μM
CYP2D6 = CYP2D6 (Homo sapiens (Human), UniProt P10635); experiment: CYP450 Inhibition; format: in vitro ADME; settings: at 10 μM
CYP2C9 = CYP2C9 (Homo sapiens (Human), UniProt P11712); experiment: CYP450 Inhibition; format: in vitro ADME; settings: at 10 μM
CYP2C19 = CYP2C19 (Homo sapiens (Human), UniProt P33261); experiment: CYP450 Inhibition; format: in vitro ADME; settings: at 10 μM
[2] = Plasma Protein Binding, human; format: in vitro ADME
[3] = Plasma Protein Binding, rat; format: in vitro ADME
CLint (rat) = format: in vitro ADME
Rat Plasma Stability = format: in vitro ADME
[4] = Pharmacokinetic profile, intravenous and oral administration; format: in vivo
Experimental: The ADME properties and the pharmacokinetic profile of compound 2 were evaluated.

human cytochrome isoform = experiment: Effect towards human cytochrome isoforms; format: in vitro ADME; settings: at the maximal concentration of 10 μM
human TRPM8 = human TRPM8 (Homo sapiens (Human), UniProt Q7Z2W7); experiment: HTS cellular-based calcium assay for human TRPM8 antagonists (FLIPR TETRA); settings: HEK293/hTRPM8 cells, agonist Cooling Agent 10 at EC80, Ca2+ fluorescence
[5] = day 7 and day 14, 3 hours and 5 hours post-dose
[6] = day 7 and day 14 after nerve injury, 3 hours after treatment
[7] = oral administration, PO 10 mg/kg
[8] = plasma, intravenous administration, IV 5 mg/kg
[9] = plasma, oral administration, PO 10 mg/kg

Sequence of hERG channel (Q12809 whole entry): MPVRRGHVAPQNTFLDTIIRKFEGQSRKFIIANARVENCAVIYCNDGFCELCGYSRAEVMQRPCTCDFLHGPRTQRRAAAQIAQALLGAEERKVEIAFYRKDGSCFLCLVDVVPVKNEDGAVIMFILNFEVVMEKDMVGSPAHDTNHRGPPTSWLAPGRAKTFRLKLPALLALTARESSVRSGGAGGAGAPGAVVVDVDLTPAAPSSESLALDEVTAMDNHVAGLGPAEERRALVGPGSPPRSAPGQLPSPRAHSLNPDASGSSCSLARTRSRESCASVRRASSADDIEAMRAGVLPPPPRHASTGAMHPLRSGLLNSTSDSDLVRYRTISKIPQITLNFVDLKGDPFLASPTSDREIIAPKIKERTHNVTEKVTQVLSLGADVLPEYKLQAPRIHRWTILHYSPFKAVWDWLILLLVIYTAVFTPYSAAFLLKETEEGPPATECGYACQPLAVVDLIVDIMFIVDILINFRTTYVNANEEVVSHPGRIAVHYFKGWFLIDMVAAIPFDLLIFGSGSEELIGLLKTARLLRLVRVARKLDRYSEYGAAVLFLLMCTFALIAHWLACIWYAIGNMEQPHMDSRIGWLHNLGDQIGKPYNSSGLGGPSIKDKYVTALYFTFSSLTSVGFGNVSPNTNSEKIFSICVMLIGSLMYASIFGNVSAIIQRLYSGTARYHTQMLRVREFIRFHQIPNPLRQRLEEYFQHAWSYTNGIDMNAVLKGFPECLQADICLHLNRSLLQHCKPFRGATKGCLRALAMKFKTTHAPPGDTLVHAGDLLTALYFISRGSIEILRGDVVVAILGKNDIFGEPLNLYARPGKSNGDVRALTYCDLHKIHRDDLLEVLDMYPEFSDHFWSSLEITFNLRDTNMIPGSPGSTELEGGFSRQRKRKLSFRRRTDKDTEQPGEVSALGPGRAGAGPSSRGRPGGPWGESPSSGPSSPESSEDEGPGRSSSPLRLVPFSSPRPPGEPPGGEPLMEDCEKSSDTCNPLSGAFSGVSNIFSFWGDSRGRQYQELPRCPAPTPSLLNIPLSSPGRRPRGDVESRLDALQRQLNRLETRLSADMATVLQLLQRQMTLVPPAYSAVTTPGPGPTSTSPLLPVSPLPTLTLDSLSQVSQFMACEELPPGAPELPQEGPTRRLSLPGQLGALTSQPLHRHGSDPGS
Sequence of CYP2D6 (P10635 whole entry): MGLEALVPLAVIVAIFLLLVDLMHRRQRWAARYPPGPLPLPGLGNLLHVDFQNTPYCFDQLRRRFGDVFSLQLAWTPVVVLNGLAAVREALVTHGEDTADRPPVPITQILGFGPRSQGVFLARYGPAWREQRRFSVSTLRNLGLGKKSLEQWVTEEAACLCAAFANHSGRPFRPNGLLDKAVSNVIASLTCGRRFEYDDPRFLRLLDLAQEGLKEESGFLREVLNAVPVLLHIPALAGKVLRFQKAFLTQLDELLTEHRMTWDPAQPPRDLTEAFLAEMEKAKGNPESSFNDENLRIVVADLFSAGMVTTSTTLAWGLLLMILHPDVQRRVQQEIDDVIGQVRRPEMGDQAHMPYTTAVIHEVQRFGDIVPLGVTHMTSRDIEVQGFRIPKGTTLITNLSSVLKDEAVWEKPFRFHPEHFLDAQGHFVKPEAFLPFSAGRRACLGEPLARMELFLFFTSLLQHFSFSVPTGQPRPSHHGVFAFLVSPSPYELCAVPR
Sequence of human Histamine H2 (P25021 whole entry): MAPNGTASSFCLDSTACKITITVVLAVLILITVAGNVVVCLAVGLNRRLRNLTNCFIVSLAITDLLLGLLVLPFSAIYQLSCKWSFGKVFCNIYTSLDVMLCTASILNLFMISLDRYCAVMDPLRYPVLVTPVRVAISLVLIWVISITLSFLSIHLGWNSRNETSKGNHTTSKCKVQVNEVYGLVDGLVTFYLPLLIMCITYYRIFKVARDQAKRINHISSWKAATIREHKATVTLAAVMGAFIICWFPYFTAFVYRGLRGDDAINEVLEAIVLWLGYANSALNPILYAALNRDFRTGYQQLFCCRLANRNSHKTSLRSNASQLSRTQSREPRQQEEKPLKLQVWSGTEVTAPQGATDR
Sequence of CYP3A4 (P08684 whole entry): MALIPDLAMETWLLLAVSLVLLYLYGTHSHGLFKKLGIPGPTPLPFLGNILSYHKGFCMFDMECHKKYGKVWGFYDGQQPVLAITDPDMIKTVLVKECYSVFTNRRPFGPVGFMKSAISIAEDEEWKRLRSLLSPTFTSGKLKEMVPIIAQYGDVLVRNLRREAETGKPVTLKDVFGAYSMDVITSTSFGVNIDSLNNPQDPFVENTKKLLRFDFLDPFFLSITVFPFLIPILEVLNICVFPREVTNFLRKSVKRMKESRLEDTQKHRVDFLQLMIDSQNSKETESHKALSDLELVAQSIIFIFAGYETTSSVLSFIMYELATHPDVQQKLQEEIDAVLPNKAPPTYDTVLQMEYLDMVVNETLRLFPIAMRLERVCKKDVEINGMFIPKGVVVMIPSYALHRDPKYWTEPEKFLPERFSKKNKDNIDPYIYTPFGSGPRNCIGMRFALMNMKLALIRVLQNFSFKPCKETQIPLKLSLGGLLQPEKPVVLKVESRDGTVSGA
Sequence of CYP2C9 (P11712 whole entry): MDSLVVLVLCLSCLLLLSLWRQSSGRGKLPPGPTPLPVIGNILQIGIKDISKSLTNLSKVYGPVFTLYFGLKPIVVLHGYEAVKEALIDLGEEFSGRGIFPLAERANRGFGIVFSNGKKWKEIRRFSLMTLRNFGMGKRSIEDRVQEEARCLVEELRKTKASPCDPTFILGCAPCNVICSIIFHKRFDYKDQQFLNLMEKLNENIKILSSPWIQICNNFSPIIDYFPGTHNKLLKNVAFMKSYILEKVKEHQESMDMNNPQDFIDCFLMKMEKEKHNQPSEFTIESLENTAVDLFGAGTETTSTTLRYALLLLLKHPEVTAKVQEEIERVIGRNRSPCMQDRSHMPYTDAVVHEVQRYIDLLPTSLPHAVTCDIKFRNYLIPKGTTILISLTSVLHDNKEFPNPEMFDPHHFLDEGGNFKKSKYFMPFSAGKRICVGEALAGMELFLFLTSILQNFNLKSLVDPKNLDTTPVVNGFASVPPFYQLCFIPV
Sequence of CYP1A2 (P05177 whole entry): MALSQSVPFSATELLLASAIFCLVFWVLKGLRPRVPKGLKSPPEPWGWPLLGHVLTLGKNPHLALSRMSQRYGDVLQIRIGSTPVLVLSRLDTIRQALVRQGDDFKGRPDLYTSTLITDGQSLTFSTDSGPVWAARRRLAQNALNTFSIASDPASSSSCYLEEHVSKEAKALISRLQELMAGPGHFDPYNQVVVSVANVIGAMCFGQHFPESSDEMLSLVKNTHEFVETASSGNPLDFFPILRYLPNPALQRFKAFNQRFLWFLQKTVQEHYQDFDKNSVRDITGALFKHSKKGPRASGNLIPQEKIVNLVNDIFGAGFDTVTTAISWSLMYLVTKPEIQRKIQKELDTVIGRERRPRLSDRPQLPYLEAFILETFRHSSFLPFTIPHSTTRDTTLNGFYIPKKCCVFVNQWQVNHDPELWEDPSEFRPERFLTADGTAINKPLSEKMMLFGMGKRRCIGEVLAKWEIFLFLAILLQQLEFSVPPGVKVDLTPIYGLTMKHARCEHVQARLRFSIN
Sequence of human NK1 (P25103 whole entry): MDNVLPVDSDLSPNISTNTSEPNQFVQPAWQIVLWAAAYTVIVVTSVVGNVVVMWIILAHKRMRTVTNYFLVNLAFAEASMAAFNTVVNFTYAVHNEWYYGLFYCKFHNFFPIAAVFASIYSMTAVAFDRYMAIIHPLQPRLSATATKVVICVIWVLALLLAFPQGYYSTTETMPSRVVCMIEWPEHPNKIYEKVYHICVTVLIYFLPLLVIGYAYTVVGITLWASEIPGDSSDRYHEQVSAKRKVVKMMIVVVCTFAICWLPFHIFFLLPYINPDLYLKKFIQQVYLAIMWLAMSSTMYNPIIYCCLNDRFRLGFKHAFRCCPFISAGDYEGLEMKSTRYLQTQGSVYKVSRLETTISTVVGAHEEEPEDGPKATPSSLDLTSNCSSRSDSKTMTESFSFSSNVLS
Sequence of human Muscarinic M2 (P08172 whole entry): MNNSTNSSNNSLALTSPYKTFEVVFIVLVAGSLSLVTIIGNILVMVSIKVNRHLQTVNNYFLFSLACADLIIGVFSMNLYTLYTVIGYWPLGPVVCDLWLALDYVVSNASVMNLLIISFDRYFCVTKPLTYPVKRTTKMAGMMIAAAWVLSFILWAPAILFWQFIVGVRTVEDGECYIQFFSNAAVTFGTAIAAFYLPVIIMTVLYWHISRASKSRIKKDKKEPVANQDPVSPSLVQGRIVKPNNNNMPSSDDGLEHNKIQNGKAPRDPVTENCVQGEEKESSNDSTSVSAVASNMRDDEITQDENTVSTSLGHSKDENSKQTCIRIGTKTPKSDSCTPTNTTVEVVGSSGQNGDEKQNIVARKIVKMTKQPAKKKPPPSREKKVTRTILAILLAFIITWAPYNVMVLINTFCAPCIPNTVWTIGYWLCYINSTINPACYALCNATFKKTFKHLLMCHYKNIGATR
Sequence of human Cannabinoid CB1 (P21554 whole entry): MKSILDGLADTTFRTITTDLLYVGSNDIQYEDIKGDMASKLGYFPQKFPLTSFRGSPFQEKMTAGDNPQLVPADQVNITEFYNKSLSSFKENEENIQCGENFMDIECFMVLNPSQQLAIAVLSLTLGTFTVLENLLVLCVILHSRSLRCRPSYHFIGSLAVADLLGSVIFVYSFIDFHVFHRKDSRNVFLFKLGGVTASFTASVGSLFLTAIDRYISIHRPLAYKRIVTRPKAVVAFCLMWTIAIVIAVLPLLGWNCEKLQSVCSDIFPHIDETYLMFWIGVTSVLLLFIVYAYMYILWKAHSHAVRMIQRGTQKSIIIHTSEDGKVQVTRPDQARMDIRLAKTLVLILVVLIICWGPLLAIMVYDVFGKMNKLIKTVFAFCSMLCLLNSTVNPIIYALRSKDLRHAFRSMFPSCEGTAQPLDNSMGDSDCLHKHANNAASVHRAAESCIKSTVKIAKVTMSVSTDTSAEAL

CCC(=O)c1sc(-c2cccc(F)c2)nc1[O-].[Na+] [Compound 2, sodium 2-(3-fluorophenyl)-5-propanoyl-1,3-thiazol-4-olate]
effect on mechanical allodynia (mechanical allodynia; [5]): significantly attenuated | maximal activity, inhibition of mechanical allodynia (mechanical allodynia; [6]): about 50% | effect on cold allodynia (cold allodynia; [5]): significantly attenuated | maximal activity, inhibition of cold allodynia (cold allodynia; [6]): about 50% | activity towards human Muscarinic M2 (human Muscarinic M2): inactive | activity towards human Muscarinic M3 (human Muscarinic M3): inactive | activity towards human Adrenergic β1 (human Adrenergic β1): inactive | activity towards human Adrenergic β2 (human Adrenergic β2): inactive | activity towards human Adrenergic α1A (human Adrenergic α1A): inactive | activity towards human Adrenergic α2A (human Adrenergic α2A): inactive | activity towards human Serotoninergic 5-HT1A [1]: inactive | activity towards human Histamine H1 (human Histamine H1): inactive | activity towards human Histamine H2 (human Histamine H2): inactive | activity towards human Cannabinoid CB1 (human Cannabinoid CB1): inactive | activity towards human Cannabinoid CB2 (human Cannabinoid CB2): inactive | activity towards human Bradykinin B1 (human Bradykinin B1): inactive | activity towards human Bradykinin B2 (human Bradykinin B2): inactive | activity towards human Dopamine D2S (human Dopamine D2S): inactive | activity towards human Dopamine D3 (human Dopamine D3): inactive | activity towards human Opioid δ2 (DOP) (human Opioid δ2 (DOP)): inactive | activity towards human Opioid K (KOP) (human Opioid K (KOP)): inactive | activity towards human Opioid μ (MOP) (human Opioid μ (MOP)): inactive | activity towards human Opioid NOP (ORL1) (human Opioid NOP (ORL1)): inactive | activity towards human NK1 (human NK1): inactive | IC50 (TRPV1): > 10 µM | IC50 (hERG channel): > 1000 µM | effect towards hERG channel (hERG channel): none effect | IC50 (CYP3A4): > 30 µM | IC50 (CYP1A2): > 30 µM | IC50 (CYP2D6): > 30 µM | IC50 (CYP2C9): > 30 µM | IC50 (CYP2C19): > 30 µM | fraction unbound [2]: 0.0129 | fraction unbound [3]: 0.025 | microsomal CLint (CLint (rat)): 29.4 µL/min/mg | Rat Plasma Stability (% remaining) (Rat Plasma Stability; at 30 min): 98.2% | Rat Plasma Stability (% remaining) (Rat Plasma Stability; at 60 min): 80.3% | Vds ([4]; intravenous administration, IV 5 mg/kg): 1.78 L/kg | CL [4, 7]: 6.41 mL/min/kg | t1/2 [4, 7]: 2.94 h | clearance [4, 8]: 6.81 mL/min/kg | half-life [4, 8]: 3.01 h | AUC [4, 9]: 26100 ng·h/mL | Cmax [4, 9]: 10300 ng/mL | Tmax [4, 9]: 0.25 h | half-life [4, 9]: 2.94 h | bioavailability ([4]; plasma, oral administration, PO 10 mg/kg vs IV 5 mg/kg): 100% | effect towards any human cytochrome isoform (human cytochrome isoform): no effect | pKa (physchem): 4.18 | IC50 (human TRPM8): 0.028 µM
